{
  "source": "patent US20040180086A1",
  "about": "(priority 2002, published 2004)",
  "origin": "cited, not measured here",
  "test_system": "decarboxylation of peripheral levodopa",
  "settings": "carbidopa administered in combination with levodopa",
  "data": [
    {"smiles": "C[C@@](Cc1ccc(O)c(O)c1)(NN)C(=O)O", "note": "[Carbidopa, S-α-hydrazino-3,4-dihydroxy-α-methylbenzenepropanoic acid monohydrate]", "values": [
      {"measurement": "reduction of the amount of levodopa required to produce a given response", "value": "about 75%"}
    ]}
  ]
}
